The source made the active and inactive calls. The rule behind the calls is not given here.
Tests used:
[1] = target: D(1A) dopamine receptor (Homo sapiens) (UniProt P21728); assay: Displacement of [3H]SCH 23390 from recombinant human D1 receptor at 3 uM measured after 60 mins by scintillation counting analysis
[2] = target: Sigma intracellular receptor 2 (Homo sapiens) (UniProt Q5BJF2); assay: Displacement of [3H]-DTG/(+) pentazocine from human sigma2 receptor at 3 uM measured after 60 mins by scintillation counting analysis
Sequence of Sigma intracellular receptor 2 (Homo sapiens) (Q5BJF2 whole entry): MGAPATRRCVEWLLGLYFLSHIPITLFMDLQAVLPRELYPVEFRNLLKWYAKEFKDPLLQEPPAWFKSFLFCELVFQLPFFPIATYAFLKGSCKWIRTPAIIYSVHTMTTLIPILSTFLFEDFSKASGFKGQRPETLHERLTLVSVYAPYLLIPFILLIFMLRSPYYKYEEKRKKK

D(2) dopamine receptor = D(2) dopamine receptor (Homo sapiens, UniProt P14416); assay: Displacement of [3H]methyl-spiperone from recombinant human D2S receptor measured after 60 mins by scintillation counting analysis
Sequence of D(2) dopamine receptor (P14416 whole entry): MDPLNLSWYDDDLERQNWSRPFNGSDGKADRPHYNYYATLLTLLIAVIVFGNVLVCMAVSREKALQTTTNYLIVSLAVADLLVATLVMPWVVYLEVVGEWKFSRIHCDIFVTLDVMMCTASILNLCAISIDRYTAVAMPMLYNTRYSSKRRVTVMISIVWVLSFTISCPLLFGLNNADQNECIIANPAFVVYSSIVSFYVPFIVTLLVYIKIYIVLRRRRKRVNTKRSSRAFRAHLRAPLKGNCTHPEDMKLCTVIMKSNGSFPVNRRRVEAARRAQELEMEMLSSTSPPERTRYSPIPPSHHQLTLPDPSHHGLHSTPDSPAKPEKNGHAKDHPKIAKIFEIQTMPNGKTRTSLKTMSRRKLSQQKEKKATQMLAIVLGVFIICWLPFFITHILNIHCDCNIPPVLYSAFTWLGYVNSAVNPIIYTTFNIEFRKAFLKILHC

D(3) dopamine receptor = D(3) dopamine receptor (Homo sapiens, UniProt P35462); assay: Displacement of [3H]methyl-spiperone from recombinant human D3 receptor measured after 60 mins by scintillation counting analysis
Sequence of D(3) dopamine receptor (P35462 whole entry): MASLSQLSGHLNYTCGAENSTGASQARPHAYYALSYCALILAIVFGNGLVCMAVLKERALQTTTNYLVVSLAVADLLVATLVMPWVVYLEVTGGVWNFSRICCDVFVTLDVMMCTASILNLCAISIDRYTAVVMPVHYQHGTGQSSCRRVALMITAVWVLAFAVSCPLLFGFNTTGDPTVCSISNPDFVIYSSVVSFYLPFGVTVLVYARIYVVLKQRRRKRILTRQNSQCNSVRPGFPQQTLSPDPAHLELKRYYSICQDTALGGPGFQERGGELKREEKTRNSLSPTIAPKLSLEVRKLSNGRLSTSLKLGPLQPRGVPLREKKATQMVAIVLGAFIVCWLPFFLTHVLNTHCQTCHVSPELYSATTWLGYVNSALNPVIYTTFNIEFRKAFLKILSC

[3] = target: Voltage-gated inwardly rectifying potassium channel KCNH2 (Homo sapiens, UniProt Q12809); assay: Displacement of [3H]dofetilide from recombinant human ERG stably expressed in HEK293 cell membranes measured after 60 mins by scintillation counting analysis; type: toxicity, Membrane
Sequence of Voltage-gated inwardly rectifying potassium channel KCNH2 (Q12809 whole entry): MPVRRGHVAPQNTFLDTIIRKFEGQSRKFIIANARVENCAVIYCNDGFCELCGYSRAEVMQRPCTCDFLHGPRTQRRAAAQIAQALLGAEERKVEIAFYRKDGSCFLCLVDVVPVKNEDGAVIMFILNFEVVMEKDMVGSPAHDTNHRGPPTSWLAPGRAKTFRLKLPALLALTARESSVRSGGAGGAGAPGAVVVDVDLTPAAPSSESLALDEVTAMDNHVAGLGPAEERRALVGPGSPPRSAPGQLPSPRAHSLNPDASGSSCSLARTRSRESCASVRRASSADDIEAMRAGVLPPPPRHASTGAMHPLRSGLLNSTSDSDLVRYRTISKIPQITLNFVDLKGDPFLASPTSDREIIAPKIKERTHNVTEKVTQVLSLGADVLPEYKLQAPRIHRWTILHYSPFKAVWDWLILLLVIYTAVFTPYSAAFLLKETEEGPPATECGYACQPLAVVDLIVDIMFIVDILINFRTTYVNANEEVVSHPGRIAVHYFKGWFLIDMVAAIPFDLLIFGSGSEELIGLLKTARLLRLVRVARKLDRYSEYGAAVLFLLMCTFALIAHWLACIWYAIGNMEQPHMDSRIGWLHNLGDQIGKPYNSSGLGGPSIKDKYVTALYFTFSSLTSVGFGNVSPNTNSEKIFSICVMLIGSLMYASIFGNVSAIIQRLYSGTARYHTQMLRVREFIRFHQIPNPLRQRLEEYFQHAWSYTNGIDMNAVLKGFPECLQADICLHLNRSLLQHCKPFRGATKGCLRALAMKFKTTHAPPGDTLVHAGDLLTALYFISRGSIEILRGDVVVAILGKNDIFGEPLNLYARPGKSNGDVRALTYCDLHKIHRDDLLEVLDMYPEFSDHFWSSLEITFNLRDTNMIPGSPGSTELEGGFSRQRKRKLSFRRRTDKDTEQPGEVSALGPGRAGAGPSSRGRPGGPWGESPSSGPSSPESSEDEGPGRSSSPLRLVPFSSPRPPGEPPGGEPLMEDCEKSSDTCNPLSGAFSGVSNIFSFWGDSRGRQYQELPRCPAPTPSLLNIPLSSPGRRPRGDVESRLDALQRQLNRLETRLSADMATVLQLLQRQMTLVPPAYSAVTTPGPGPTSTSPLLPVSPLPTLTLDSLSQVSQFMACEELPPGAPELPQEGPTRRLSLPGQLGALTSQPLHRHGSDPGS

Sequence of D(1A) dopamine receptor (Homo sapiens) (P21728 whole entry): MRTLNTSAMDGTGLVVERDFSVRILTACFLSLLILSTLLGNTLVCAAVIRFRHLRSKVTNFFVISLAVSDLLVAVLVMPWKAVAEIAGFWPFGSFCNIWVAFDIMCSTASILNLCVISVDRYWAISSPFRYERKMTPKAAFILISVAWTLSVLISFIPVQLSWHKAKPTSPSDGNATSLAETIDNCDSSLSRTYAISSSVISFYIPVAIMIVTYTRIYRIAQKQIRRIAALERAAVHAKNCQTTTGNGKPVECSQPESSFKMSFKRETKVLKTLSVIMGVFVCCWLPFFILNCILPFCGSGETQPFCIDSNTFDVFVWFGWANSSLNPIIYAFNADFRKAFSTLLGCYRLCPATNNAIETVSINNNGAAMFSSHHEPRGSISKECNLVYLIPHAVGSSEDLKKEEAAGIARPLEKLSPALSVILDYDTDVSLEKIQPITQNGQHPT

For `c1ccc(Cc2cn(C3CCN(Cc4ccccc4)CC3)nn2)cc1`, the Activity [1] was “Active”, the Activity [2] was “Active” and the Ki (D(2) dopamine receptor) was 6.3 µM. For the same molecule, the Ki (D(3) dopamine receptor) was > 10 µM and the Ki [3] was 4.6 µM.

From ChEMBL document CHEMBL5113450, “Discovery of potent dual ligands for dopamine D4 and σ1 receptors” (Bioorg Med Chem, 2022)
